Source: ChEMBL document CHEMBL1201862, “PubChem BioAssay data set” (2004)
Activity calls are given as the source filed them.

Legend:
[1] = molecular target: Steroidogenic factor 1 (Homo sapiens, UniProt Q13285); assay: Counterscreen for inverse agonists of the liver receptor homolog-1 (LRH-1; NR5A2): Luminescence-based cell-based high throughput dose response assay to identify inverse agonists of the Steroidogenic Factor 1 Nuclear Receptor (SF1; NR5A1).; assay type: functional
[2] = nonselective StAR promoter luciferase inhibitors – cell-based, luminescence, luciferase reporter, counter-screen for LRH-1 inverse agonist project, dose response (AID 651969); assay type: functional
[3] = system: Vero; assay: cells; assay type: functional; conditions: Chlorocebus sabaeus
[4] = A Cell Based Secondary Assay To Explore Cytotoxicity of Compounds that Sensitize Mycobacterium Tuberculosis to Beta-Lactam Antibiotics.; assay type: functional
[5] = molecular target: Nuclear receptor subfamily 5 group A member 2 (Homo sapiens, UniProt O00482); assay type: functional, cell-based;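 further: HEK293T cells transfected with LRH-1 and a StAR promoter luciferase reporter; potency for inhibitors that lower LRH-1 driven reporter light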
[6] = molecular target: T1, Low molecular weight phosphotyrosine protein phosphatase (Homo sapiens, UniProt P24666); assay type: functional; conditions: read-out: IC50_Mean
T1 sequence (P24666 whole entry): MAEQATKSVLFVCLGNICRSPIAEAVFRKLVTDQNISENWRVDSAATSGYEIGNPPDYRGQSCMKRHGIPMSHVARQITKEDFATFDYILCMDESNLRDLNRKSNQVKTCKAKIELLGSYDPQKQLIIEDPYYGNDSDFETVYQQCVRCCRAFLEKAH

[7] = molecular target: T1, Low molecular weight phosphotyrosine protein phosphatase; assay type: functional; conditions: read-out: IC50_Mean; remark: listed apart in the source
[8] = molecular target: T2, Tyrosine-protein phosphatase non-receptor type 5 (Homo sapiens, UniProt P54829); assay: PTPN5 enzyme inhibition – biochemical, fluorescence intensity, uHTS hits, confirmation (AID 602372); assay type: functional; conditions: read-out: IC50_Mean
T2 sequence (P54829 whole entry): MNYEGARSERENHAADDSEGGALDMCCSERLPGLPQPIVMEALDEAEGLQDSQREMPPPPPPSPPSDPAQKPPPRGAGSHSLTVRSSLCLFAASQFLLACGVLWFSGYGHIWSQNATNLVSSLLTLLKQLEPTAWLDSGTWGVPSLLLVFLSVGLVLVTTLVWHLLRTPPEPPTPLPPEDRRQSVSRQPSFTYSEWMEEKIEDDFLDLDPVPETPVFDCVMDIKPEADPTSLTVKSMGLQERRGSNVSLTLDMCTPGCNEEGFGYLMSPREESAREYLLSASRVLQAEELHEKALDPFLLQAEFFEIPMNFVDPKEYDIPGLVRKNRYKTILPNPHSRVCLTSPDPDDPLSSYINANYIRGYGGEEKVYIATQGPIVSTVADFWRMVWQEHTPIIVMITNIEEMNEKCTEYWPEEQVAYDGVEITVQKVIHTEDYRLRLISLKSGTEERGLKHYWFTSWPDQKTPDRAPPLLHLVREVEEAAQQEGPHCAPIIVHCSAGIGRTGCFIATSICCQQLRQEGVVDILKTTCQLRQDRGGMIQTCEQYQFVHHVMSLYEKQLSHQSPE

[9] = molecular target: T3, Voltage-gated N-type calcium channel alpha-1B subunit/Amyloid beta A4 precursor protein-binding family A member 1 (Homo sapiens, UniProt Q00975+Q02410); assay type: protein assay
[10] = molecular target: Beta-lactamase (Salmonella choleraesuis (strain SC-B67), UniProt Q5J463)
[11] = molecular target: Beta-lactamase (Pseudomonas aeruginosa, UniProt Q79MP6);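 further: biochemical dose-response test of metallo-beta-lactamase enzyme inhibition, read out by epi-absorbance; purified recombinant IMP-1 metallo-beta-lactamase with nitrocefin as substrate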
[12] = molecular target: Dual specificity protein phosphatase 3 (Homo sapiens, UniProt P51452); assay: VHR phosphatase inhibition, dose response, selectivity assay for STEP inhibitor project, biochemical (AID 602374); assay type: functional; conditions: read-out: IC50_Mean
[13] = molecular target: Beta Lactamase (Pseudomonas aeruginosa, UniProt Q932Y6);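 further: confirmatory high-throughput screen measuring VIM-2 metallo-beta-lactamase inhibition by epi-absorbance in dose response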
[14] = molecular target: Tyrosine-protein phosphatase non-receptor type 22 (Homo sapiens, UniProt Q9Y2R2); assay: lymphoid phosphatase LYP inhibitors – biochemical, selectivity assay for STEP inhibitor project, dose response (AID 624241); assay type: functional
[15] = molecular target: T4, Tyrosine-protein phosphatase non-receptor type 11 (Homo sapiens, UniProt Q06124); assay: PTPN11 enzyme inhibitors – biochemical, selectivity assay for STEP inhibitor project, dose response (AID 602367); assay type: functional; conditions: read-out: IC50_Mean
T4 sequence (Q06124 whole entry): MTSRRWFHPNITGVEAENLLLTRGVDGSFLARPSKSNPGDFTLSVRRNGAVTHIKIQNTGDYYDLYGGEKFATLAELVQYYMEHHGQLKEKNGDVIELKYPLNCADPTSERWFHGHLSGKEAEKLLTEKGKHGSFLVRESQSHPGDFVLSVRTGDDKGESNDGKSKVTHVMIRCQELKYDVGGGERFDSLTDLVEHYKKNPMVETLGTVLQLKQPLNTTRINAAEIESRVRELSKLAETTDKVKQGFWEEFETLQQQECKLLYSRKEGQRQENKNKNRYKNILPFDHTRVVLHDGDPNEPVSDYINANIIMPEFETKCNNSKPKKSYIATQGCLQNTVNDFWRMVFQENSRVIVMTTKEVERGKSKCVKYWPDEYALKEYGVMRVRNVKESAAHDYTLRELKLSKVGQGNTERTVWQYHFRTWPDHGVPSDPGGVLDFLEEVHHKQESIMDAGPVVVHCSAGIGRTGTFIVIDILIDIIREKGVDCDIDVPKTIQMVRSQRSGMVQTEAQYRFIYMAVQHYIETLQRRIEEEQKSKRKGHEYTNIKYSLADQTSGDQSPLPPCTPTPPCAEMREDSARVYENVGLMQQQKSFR

[16] = molecular target: T3, Voltage-gated N-type calcium channel alpha-1B subunit/Amyloid beta A4 precursor protein-binding family A member 1; assay type: protein assay; remark: listed apart in the source
[17] = molecular target: T5, Apoptotic protease-activating factor 1 (Homo sapiens, UniProt O14727); assay: SAR analysis of small molecule Activators of Apaf-1 in a Fluorescent assay.; assay type: functional; conditions: read-out: EC50_Mean;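 further: caspase-3 cleavage of fluorogenic Rh110 DEVD substrate downstream of apoptosome activation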
T5 sequence (O14727 whole entry): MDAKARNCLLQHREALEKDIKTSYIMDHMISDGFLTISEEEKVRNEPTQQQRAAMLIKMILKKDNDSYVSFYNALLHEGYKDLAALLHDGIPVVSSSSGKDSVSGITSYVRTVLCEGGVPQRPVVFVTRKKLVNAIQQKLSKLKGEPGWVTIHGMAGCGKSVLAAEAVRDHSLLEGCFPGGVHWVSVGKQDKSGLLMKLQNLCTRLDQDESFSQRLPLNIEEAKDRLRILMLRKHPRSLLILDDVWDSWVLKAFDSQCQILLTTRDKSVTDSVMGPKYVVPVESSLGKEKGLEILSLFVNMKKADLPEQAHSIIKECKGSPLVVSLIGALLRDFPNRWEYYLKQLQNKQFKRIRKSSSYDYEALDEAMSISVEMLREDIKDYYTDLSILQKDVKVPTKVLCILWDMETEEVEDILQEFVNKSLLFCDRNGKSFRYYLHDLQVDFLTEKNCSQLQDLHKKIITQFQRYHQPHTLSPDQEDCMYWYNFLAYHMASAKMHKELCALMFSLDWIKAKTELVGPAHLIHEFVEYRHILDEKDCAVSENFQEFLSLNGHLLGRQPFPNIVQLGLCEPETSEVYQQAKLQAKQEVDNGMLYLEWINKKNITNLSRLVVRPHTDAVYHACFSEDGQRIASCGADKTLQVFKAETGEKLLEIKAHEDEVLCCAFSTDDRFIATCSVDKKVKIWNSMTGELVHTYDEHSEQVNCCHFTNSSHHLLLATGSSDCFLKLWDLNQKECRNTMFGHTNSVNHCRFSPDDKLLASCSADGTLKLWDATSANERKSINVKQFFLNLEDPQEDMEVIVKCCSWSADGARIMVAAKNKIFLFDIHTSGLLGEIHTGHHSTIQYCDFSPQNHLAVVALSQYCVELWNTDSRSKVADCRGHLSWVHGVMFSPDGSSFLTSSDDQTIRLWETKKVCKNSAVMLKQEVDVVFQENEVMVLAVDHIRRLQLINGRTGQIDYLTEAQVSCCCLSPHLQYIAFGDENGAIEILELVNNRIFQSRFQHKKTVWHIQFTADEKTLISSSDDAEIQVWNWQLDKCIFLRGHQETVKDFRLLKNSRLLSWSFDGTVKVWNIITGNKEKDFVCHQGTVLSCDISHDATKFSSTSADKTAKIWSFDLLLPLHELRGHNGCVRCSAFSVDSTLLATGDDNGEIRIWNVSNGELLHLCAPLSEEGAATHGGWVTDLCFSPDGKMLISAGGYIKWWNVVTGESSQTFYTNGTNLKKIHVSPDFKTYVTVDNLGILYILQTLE

T3 sequence (Q00975 whole entry): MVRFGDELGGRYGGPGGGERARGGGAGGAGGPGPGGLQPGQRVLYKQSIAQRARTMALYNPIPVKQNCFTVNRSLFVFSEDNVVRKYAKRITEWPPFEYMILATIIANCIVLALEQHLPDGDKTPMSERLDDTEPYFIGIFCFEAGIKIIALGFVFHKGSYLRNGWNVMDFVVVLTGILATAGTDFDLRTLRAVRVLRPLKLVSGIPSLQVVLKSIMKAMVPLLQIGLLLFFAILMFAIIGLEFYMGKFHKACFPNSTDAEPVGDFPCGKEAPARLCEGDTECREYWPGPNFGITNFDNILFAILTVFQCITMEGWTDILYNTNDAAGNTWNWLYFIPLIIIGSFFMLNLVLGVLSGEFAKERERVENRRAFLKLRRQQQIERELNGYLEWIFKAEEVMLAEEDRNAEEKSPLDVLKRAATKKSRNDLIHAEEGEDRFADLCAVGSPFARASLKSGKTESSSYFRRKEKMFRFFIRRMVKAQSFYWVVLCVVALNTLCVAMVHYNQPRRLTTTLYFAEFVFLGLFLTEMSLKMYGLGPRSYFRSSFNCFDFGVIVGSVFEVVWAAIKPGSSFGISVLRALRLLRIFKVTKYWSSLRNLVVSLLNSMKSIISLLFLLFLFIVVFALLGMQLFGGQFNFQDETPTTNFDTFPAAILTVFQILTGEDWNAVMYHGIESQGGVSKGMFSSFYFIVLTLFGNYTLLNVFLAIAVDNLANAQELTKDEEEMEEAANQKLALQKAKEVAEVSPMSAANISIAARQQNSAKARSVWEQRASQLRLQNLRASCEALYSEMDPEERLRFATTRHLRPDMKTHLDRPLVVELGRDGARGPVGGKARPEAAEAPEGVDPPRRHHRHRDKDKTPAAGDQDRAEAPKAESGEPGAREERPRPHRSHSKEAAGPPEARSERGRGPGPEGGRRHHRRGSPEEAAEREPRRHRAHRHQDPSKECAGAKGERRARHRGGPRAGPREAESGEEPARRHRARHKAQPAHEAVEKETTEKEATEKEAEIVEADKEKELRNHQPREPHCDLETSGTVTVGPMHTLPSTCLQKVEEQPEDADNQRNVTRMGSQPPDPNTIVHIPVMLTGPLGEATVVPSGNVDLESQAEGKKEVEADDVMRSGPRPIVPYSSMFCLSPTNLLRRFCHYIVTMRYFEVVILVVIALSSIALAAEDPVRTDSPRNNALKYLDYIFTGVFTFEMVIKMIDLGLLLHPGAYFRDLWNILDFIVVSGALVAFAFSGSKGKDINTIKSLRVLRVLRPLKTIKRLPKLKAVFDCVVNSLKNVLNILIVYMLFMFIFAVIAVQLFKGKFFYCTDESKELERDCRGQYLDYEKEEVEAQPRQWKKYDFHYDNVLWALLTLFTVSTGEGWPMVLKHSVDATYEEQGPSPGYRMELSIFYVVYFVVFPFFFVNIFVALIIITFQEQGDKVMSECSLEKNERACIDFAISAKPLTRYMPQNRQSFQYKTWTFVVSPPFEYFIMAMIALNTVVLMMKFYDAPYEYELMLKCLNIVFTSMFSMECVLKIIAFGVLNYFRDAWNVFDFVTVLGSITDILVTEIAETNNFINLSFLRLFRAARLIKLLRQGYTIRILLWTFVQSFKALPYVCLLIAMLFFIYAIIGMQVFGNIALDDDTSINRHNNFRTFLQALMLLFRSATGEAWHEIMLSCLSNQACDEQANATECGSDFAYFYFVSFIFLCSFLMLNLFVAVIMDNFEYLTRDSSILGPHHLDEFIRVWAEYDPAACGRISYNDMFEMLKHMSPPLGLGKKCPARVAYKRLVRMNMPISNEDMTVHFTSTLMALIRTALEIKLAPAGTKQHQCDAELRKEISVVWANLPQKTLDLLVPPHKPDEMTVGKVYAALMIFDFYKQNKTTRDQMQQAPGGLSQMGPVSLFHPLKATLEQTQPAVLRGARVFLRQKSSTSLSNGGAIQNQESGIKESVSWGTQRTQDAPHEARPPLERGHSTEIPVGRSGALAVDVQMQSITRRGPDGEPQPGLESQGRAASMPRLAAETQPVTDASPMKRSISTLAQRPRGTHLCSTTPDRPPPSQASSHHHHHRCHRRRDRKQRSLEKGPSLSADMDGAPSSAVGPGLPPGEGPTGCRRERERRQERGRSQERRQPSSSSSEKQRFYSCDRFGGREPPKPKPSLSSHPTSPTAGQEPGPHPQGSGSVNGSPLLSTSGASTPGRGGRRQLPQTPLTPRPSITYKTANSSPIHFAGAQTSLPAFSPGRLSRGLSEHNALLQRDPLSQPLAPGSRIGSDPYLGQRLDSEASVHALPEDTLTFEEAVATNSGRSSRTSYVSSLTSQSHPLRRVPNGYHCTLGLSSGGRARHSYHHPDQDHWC
T3 sequence (Q02410 whole entry): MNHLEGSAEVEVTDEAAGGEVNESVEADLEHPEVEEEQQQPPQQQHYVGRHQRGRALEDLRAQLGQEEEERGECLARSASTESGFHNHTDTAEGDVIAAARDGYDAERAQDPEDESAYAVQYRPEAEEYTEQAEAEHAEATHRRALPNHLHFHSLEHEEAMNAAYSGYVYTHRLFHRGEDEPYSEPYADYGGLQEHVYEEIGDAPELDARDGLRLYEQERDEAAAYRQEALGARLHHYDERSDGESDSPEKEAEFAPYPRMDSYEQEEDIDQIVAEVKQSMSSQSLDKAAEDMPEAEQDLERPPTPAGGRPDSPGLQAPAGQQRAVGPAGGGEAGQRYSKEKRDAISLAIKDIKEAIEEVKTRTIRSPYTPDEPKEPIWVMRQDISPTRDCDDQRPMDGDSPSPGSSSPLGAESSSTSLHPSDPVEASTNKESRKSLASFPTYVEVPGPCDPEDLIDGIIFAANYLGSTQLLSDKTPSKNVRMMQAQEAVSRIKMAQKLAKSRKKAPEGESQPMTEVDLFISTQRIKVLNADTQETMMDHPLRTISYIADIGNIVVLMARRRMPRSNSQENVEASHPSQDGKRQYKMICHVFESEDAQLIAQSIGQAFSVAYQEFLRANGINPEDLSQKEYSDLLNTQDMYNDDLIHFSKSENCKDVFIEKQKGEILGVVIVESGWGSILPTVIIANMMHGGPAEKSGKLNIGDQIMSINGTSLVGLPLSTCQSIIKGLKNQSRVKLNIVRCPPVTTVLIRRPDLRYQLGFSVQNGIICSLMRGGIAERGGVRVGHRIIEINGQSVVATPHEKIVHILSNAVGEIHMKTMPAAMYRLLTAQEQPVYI
Beta-lactamase (Pseudomonas aeruginosa, UniProt Q79MP6), sequence (Q79MP6 whole entry): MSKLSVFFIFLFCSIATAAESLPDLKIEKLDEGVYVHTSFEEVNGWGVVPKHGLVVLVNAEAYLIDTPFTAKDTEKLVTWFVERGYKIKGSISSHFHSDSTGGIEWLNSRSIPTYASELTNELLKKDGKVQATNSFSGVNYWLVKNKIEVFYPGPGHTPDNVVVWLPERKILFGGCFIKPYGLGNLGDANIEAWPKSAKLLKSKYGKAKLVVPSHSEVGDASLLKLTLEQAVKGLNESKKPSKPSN
Tyrosine-protein phosphatase non-receptor type 22, sequence (Q9Y2R2 whole entry): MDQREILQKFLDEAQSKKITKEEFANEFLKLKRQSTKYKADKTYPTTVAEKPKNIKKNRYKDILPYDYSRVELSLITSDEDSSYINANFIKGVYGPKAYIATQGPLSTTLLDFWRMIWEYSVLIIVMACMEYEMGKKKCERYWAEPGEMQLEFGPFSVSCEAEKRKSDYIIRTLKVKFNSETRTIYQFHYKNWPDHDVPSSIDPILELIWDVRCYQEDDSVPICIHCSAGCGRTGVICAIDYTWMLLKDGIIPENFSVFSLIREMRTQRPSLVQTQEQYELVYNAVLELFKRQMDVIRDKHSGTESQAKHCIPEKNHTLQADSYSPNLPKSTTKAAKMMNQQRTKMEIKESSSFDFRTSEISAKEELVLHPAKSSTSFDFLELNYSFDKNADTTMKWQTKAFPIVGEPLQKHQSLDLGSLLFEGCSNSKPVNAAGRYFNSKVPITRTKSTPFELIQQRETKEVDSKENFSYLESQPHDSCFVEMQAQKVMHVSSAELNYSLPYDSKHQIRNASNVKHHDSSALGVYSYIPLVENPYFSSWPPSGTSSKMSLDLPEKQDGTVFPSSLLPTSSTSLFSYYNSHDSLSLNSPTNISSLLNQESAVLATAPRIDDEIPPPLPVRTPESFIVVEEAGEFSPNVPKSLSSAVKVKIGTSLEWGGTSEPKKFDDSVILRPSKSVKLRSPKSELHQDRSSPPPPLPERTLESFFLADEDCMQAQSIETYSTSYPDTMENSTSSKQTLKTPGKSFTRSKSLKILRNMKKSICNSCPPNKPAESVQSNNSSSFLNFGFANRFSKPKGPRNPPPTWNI
Beta-lactamase (Salmonella choleraesuis (strain SC-B67), UniProt Q5J463), sequence (Q5J463 whole entry): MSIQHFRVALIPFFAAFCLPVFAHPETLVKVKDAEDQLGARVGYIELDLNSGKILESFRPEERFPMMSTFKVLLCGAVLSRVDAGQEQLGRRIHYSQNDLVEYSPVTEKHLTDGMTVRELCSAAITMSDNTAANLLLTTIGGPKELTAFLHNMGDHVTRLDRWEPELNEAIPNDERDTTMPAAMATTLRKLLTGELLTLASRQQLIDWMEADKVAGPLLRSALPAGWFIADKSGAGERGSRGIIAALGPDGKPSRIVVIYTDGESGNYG
Steroidogenic factor 1, sequence (Q13285 whole entry): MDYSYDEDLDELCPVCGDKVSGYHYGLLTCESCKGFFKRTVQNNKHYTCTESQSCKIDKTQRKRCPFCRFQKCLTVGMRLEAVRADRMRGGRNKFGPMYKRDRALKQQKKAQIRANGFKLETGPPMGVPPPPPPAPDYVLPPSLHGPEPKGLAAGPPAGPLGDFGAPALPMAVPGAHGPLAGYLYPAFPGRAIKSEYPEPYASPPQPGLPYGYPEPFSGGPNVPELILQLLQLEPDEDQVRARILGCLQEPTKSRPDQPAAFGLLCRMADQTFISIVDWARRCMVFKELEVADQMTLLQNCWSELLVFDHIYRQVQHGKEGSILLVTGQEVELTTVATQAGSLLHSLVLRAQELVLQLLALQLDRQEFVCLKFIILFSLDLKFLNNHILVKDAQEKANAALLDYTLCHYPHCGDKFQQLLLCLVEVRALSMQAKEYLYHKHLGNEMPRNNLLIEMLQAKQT

Q: Which results are given for `Cc1onc(NC(=O)c2ccc([N+](=O)[O-])o2)c1Br`?
A: IC50 [1]: 0.369 µM (active); IC50 [2]: 35.9 µM (inactive); CC50 [3]: 20.8 µM (active); CC50 [4]: 8.19 µM (active); IC50 [5]: 1.33 µM (active)

Q: What does the source list for `C/C(=N\Nc1ccc(S(N)(=O)=O)cc1[N+](=O)[O-])c1cccs1`?
A: IC50 [6]: > 80 µM (inactive); IC50 [7]: 38.2 µM (inactive); IC50 [8]: 13.9 µM (active); IC50 [9]: > 50 µM (inactive); IC50 [10]: > 59.6 µM (inactive); IC50 [11]: > 59.6 µM (inactive); IC50 [12]: 3.04 µM (active); IC50 [13]: > 59.6 µM (inactive); IC50 [14]: 81.3 µM (inactive); IC50 [15]: 2.13 µM (active); IC50 [16]: 1.42 µM (active)

Q: Which EC50 [17] does the source give for `CCOC(=O)C1CCc2[nH]c3ccc(OC)cc3c2C1` (configuration not stated) here?
A: > 100 µM (inactive)
